From publication PMC10947197, “Acid‐Resistant BODIPY Amino Acids for Peptide‐Based Fluorescence Imaging of GPR54 Receptors in Pancreatic Islets” (Angewandte Chemie (International Ed. in English), 2023) come the findings set out here.

Data set [1] is described as follows: Optical properties (absorbance, emission, extinction coefficient). It counts as physicochemical. The text has this:
Supplementary Figure 3. Det er m inat ion of t he ex t inc t i on c oef f ic i ent of T rp-BO DI PY P LUS in EtOH. V alues pr es ent e d as m eans ±S E M ( n= 6) .
S u p p l emen t ary F i gu re 4 . […]
(also on this page, place not known: 0.0 0.1 0.2 0.3 0.4 0.5 0.6 ε: 87,680 M-1cm-1 R2: 0.98 (µM) Optical density (500 nm) Determination the extinction coefficient Trp-BODIPY Values presented means±SEM (n=6). Wavelength (nm) fluorescence (RFU) Relative Supplementary Figure 4. Representative emission spectra Trp-BODIPY PLUS µM) water (black) and dioxane (green). (n=3).) […]
Sp ectro sco p y mea su rem en ts. O pt ical prop ert ies were me asure d in a Synergy H 1 B ioT ek spect rop hot om et er at t he ind icat ed co ncent rat i ons o n 96 or 38 4-we ll p lat es.
A bs or ba nc e and em is s i on s pec t r a wer e det er m i ned in t he r ange of 400– 700 nm ( ev er y 2 nm). F or liposom e exp erime nt s, phosph at idylc hol ine (P C)-bas ed li posom es wer e pur c has ed f r om Lipos om a, dilut ed in PBS, and t r ans f er r ed int o a blac k f lat -bot t om 96-well pl at e f or opt ical measur ement s. […]
Cel l exp eri men t s. W ork wit h hum an per iph eral b loo d leuk ocyt es comp lie d wit h al l releva nt et hical r egu lat io ns and inf orme d conse nt was obt a ine d. T he st udy prot oco l was approv ed by t he Medica l Regi ona l Et hics Commit t ee ( 21-EMREC - 04 1) at t he Univers ity of Edinb urgh. H uman blo od le ukocytes w ere iso late d from hea lthy volunt e ers. Brief ly, whole b loo d was ant i-c o agu lat ed w it h s odium c it r at e [ 0. 4% ( w/ v ) f inal c onc ent r at io n] and c ent r if ug ed at 350 g for 20 m i n. P lat elet-ric h plasma w as r em ov ed and aut o log ous s er um was ge ner at e d by r ec alc if ic at ion wit h CaC l2 ( 20 m M f inal co ncent rat i on). […] 5 %/ 63%/ 7 2. 9% d is c ont i nuo us gr adi ent s . […] 9 % int er f ac e. […]
HE K29 3 cel l s. Immort alize d huma n embry onic ki dney ce lls HE K 293 w ere gro wn i n DM EM wit hout py r uv at e wit h 4. 5 g L-1 of D-gluc os e, F B S , and penic ill in/ s t r ept om y c i n

Data set [2] in a line: Solubility: linear regression of HPLC peak area in DMSO and PBS. It counts as physicochemical. Conditions: DMSO and PBS (≤1% DMSO), HPLC-MS with UV detection at 510 nm. As to the method: S u p p l emen t ary Figure 7. Nor m alized f luoresc ence em is s ion of Trp-BODIPY PLUS ( 50 µ M , buf f er ) at 37° C und er c o nt inu ous l ight ir r adi at ion ( Xe l am p, 20 W ) . λexc: 450 nm; λem: 510 nm . V alues pr es ent e d as m eans ±S D ( n= 6).
Supplementary Figure 8 . Linear r egr es s ions of t he p eak a bs or b anc e ar ea ( m A U) of T rp-BO DI PY PLUS in DMSO (re d) an d PBS (c ont a ini ng ≤ 1% DM S O , bl ue) at d if f er ent c onc ent r at i ons of t he ami no ac id. Valu es wer e det ermi ned by HPLC-MS us ing UV det ec t ion at 51 0 nm . R2 v alues : 0. 99 9 ( r ed) , 0. 99 4 ( blu e) .
(also on this page, place not known: time (min) Normalized photostability Normalized fluorescence emission (50 µM, buffer) 37°C under continuous light irradiation (Xe lamp, W) nm; nm. Values presented means±SD (n=6). µM) Peak area (mAU) DMSO) Supplementary 8. regressions the peak absorbance area (mAU) Trp-BODIPY DMSO (red) and (containing ≤1% DMSO, blue) different concentrations the amino acid. Values were determined using detection 510 nm. values: 0.999 (red), 0.994 (blue).)

SMILES strings stand for the structures.

On to `CC1=CC(C)=[N+]2C1=C(c1cccc(-c3[nH]c4ccccc4c3C[C@H](NC(=O)OCC3c4ccccc4-c4ccccc43)C(=O)O)c1)c1c(C)cc(C)n1[B-]2(C#N)C#N` [Trp-BODIPY PLUS], for which, in data set [1], the Absorbance maximum wavelength is 500 nm and the Emission maximum wavelength came out at 515 nm. Further, the Extinction coefficient in data set [1] (in EtOH, optical density at 500 nm, n=6, fit to Beer's law) is reported as 87,680 M-1cm-1. For the same compound, the “Solubility (in words)” value in data set [2] is on record as “suitable solubility”.
